Laboratory results: US20220105053A1, “PHARMACEUTICAL COMPOSITION FOR PREVENTION OR TREATMENT OF ACIDOSIS” (HAIM BIO CO., LTD., priority 2018, published 2022)

Test system: A549 cancer cells
Test: Lactic acid concentration-decreasing effect in A549 cell culture (lactate assay, luminescence, normalised to cell number)
Type: cell-based, human
Settings: 50 μM candidate substance, 24 hours, compared with the positive control (50 μM sodium oxamate), average of 3 experiments
Method: To this end, first, A549 cancer cells (adenocarcinomic human alveolar basal epithelial cells, Cat #CCL-185) obtained from the American Type Culture Collection (ATCC) were cultured in RPMI 1640 culture medium containing 10% fetal bovine serum and 1% antibiotic-antimycotic agent under an environment at 37° C. and 5% CO2, and passages were performed every 3 days. Lactic acid is produced in large amounts when glycolysis is activated in hypoxia. Cancer cells, which are densely packed with cells, are very active in energy-consuming activities, and thus are known to produce lactic acid in large amounts.
The cells were seeded in 24-well plates at a concentration of 3×10^5 cells/well, and incubation was performed overnight. Then, each plate was treated with each of the candidate substances (at a concentration of 50 μM) as shown in Table 1 which had been dissolved in dimethyl sulfoxide (DMSO). Incubation was further performed for 24 hours. For the negative control for the candidate substances, no treatment was performed; and for the positive control, treatment with sodium oxamate, which is conventionally known as a therapeutic agent for lactic acidosis, was performed at the same concentration (50 μM) or the […] higher concentration (50 mM). Subsequently, 50 μl of the cell culture solution obtained by being diluted with Dulbecco's Phosphate-Buffered Saline (DPBS), and 50 μl of the lactate assay reaction buffer (Promega, Madison, Wis., USA) were mixed and the mixture was added in a 96-well plate. Reaction was allowed to proceed at room temperature for 1 hour. Then, luminescence was measured with a spectrophotometer (Synergy HTX Multi-Reader, BioTek). At the same time, the number of cells in each sample was measured with a cell viability analysis kit (Cell Counting Kit-8), and calculation was performed so that the lactic acid measurement value in each sample could be compared with that in the negative control for the same number of cells.

| SMILES | lactic acid concentration-decreasing effect |
| --- | --- |
| C=C(OP(=O)([O-])O)C(=O)O.O.[Na+] [Phospho(enol)pyruvic acid monosodium salt hydrate] | about 15% |
| Nc1c(O)cccc1C(=O)CC(N)C(=O)O (racemic) [3-hydroxy-DL-kynurenine, 3-Hydroxy-DL-kynurenine] | about 20% |
| N.N.[Cl][Pt][Cl] [cis-diamminedichloridoplatinum, Cis-diamminedichloridoplatinum] | about 15% |
| CCN(CC)c1ccc(C=O)cc1 [diethylaminobenzaldehyde, Diethylaminobenzaldehyde] | about 20% |
